Results taken from publication PMC8920385, “Design, synthesis and biological evaluation of a series of dianilinopyrimidines as EGFR inhibitors” (Journal of Enzyme Inhibition and Medicinal Chemistry, 2022).

Key:
HepG2 cells = assay: Cytotoxicity evaluation (MTT assay), HepG2; type: cell-based; conditions: Homo sapiens, mean ± SD of three replicates
A549 cells = assay: Cytotoxicity evaluation (MTT assay), A549; type: cell-based; conditions: Homo sapiens, mean ± SD of three replicates
[1] = target: T1, wild type EGFR tyrosine kinase (EGFR^wt) (Homo sapiens, UniProt P00533); assay: In vitro EGFR^wt-TK assay (ELISA); type: biochemical; conditions: mean ± SD of three replicates; for inhibition at 1 µM: read-out: EGFR^wt-TK inhibition rate; for inhibition at 1 µM / EGFR^wt-TK inhibition rate: 1 μM
T1 construct: purchased PTM Bio; Co., Ltd

PC-3 cells = assay: Cytotoxicity evaluation (MTT assay), PC-3; type: cell-based; conditions: Homo sapiens, mean ± SD of three replicates
L02 cells = assay: Cytotoxicity evaluation (MTT assay), L02 normal cells; conditions: Homo sapiens, L02, read-out: IC50 L02
Method: Three tumour cells with high expression of EGFR^wt were used to test the antitumor activity of the compounds including, A549 (Human non-small-cell lung cancer cell line) cells, PC-3 (Human prostate cancer cell line) cells, and HepG2 (Human hepatocellular carcinomas cell line) cells. They were all purchased from the Shanghai Cell Bank of the Chinese Academy of Sciences. L02 (normal human liver cell line) cells were also used to evaluate the cytotoxicity. […] The IC50 values were calculated from the dose − response curve under Graph-Pad Prism.

T1 sequence (P00533 25-1210): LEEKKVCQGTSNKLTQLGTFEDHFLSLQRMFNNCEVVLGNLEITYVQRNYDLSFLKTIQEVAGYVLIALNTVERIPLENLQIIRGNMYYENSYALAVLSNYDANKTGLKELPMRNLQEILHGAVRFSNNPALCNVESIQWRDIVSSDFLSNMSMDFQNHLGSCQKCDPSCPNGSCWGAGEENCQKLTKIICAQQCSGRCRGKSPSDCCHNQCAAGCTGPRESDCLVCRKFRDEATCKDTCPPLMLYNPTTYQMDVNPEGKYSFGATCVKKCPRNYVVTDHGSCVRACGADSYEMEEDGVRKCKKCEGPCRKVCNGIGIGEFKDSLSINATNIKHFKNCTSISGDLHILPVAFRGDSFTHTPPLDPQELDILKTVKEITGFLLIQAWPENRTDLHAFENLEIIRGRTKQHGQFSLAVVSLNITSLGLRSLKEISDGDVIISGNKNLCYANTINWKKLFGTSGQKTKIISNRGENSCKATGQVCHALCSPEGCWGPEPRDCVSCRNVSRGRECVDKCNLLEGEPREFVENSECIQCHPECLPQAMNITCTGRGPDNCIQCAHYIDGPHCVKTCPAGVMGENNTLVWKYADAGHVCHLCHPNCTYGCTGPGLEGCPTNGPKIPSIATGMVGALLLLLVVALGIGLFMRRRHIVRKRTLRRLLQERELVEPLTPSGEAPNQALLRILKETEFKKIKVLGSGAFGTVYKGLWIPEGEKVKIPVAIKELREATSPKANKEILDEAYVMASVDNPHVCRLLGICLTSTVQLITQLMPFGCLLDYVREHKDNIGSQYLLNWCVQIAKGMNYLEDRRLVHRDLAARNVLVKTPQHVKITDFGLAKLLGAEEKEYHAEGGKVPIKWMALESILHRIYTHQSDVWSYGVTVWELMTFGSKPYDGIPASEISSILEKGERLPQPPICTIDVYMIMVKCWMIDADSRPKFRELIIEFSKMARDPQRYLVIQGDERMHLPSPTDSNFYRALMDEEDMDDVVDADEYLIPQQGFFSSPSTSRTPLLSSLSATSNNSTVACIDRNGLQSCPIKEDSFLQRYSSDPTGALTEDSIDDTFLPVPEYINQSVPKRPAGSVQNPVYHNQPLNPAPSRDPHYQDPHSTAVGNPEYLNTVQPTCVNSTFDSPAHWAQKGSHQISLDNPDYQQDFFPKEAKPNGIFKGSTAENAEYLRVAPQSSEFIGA

Row | SMILES | IC50 (HepG2 cells) | IC50 (A549 cells) | inhibition at 1 µM [1] | IC50 (PC-3 cells) | melting point | IC50 (L02 cells) | IC50 [1] | EGFR^wt-TK inhibition rate [1]
1 | CCCCCCNc1c(Nc2ccc(Nc3ncc(C(F)(F)F)c(Nc4sccc4C(=O)NC)n3)cc2)c(=O)c1=O [6b, 2-{2-[4-(2-Hexylamino-3,4-dioxo-cyclobut-1-enylamino)-phenylamino]-5-trifluoromethyl-pyrimidin-4-ylamino}-thiophene-3-carboxylic acid methylamide] | > 20 µM | > 20 µM | 17.4 ± 0.32% | > 20 µM | > 250 °C | > 40 µM | – | –
2 | CNC(=O)c1ccsc1Nc1nc(Nc2ccc(Nc3c(NCCNC(=O)C=Cc4ccc(F)cc4)c(=O)c3=O)cc2)ncc1C(F)(F)F [8g, 2-{2-[4–(2-{2-[3–(4-Fluoro-phenyl)-acryloylamino]-ethylamino}-3,4-dioxo-cyclobut-1-enylamino)-phenylamino]-5-trifluoromethyl-pyrimidin-4-ylamino}-thiophene-3-carboxylic acid methylamide] | 5.33 ± 0.58 µM | 3.14 ± 0.92 µM | 52.1 ± 1.93% | 6.08 ± 0.94 µM | > 250 °C | > 40 µM | 0.59 ± 0.15 µM | –
3 | CNC(=O)c1ccsc1Nc1nc(Nc2ccc(Nc3c(NCCNC(=O)C(C)C)c(=O)c3=O)cc2)ncc1C(F)(F)F [8b, 2-(2-{4-[2-(2-Isobutyrylamino-ethylamino)-3,4-dioxo-cyclobut-1-enylamino]-phenylamino}-5-trifluoromethyl-pyrimidin-4-ylamino)-thiophene-3-carboxylic acid methylamide] | > 20 µM | > 20 µM | 7.92 ± 0.54% | > 20 µM | > 250 °C | > 40 µM | – | –
4 | CNC(=O)c1ccsc1Nc1nc(Nc2ccc(Nc3c(NCCNC(=O)C4CCCC4)c(=O)c3=O)cc2)ncc1C(F)(F)F [8c, 2-[2–(4-{2-[2-(Cyclopentanecarbonyl-amino)-ethylamino]-3,4-dioxo-cyclobut-1-enylamino}-phenylamino)-5-trifluoromethyl-pyrimidin-4-ylamino]-thiophene-3-carboxylic acid methylamide] | 9.54 ± 0.91 µM | 7.32 ± 0.65 µM | 28.1 ± 1.27% | 9.69 ± 1.13 µM | > 250 °C | > 40 µM | – | –
5 | CNC(=O)c1ccsc1Nc1nc(Nc2ccc(Nc3c(NCCNC(=O)C4CCCCC4)c(=O)c3=O)cc2)ncc1C(F)(F)F [8d, 2-[2-(4-{2-[2-(Cyclohexanecarbonyl-amino)-ethylamino]-3,4-dioxo-cyclobut-1-enylamino}-phenylamino)-5-trifluoromethyl-pyrimidin-4-ylamino]-thiophene-3-carboxylic acid methylamide] | 8.28 ± 0.69 µM | 6.14 ± 0.72 µM | 29 ± 1.55% | 8.35 ± 0.74 µM | > 250 °C | > 40 µM | – | –
6 | CNC(=O)c1ccsc1Nc1nc(Nc2ccc(NC(=O)c3ccc(OC)cc3)cc2)ncc1C(F)(F)F [4a, 2-{2-[4-(4-Methoxy-benzoylamino)-phenylamino]-5-trifluoromethyl-pyrimidin-4-ylamino}-thiophene-3-carboxylic acid methylamide] | 11.5 ± 0.77 µM | 9.32 ± 0.68 µM | 31.6 ± 3.27% | 12.3 ± 0.89 µM | > 250 °C | > 40 µM | – | –
7 | CNC(=O)c1ccsc1Nc1nc(Nc2ccc(Nc3c(NCCNC(=O)OC(C)(C)C)c(=O)c3=O)cc2)ncc1C(F)(F)F [6i, [2-(2-{4-[4-(3-Methylcarbamoyl-thiophen-2-ylamino)-5-trifluoromethyl-pyrimidin-2-ylamino]-phenylamino}-3,4-dioxo-cyclobut-1-enylamino)-ethyl]-carbamic acid tert-butyl ester] | 5.24 ± 0.51 µM | 3.11 ± 0.48 µM | > 50% | 5.33 ± 0.47 µM | > 250 °C | > 40 µM | 0.66 ± 0.13 µM | 57.37 ± 1.82%
8 | CNC(=O)c1ccsc1Nc1nc(Nc2ccc(NC(=O)c3ccccc3F)cc2)ncc1C(F)(F)F [4b, 2-{2-[4-(2-Fluoro-benzoylamino)-phenylamino]-5-trifluoromethyl-pyrimidin-4-ylamino}-thiophene-3-carboxylic acid methylamide] | 7.62 ± 0.46 µM | 4.33 ± 0.59 µM | > 50% | 7.81 ± 0.53 µM | 224.8 to 226.3 °C | > 40 µM | 0.89 ± 0.12 µM | 52.08 ± 1.93%
9 | CCCNc1c(Nc2ccc(Nc3ncc(C(F)(F)F)c(Nc4sccc4C(=O)NC)n3)cc2)c(=O)c1=O [6a, 2-{2-[4-(3,4-Dioxo-2-propylamino-cyclobut-1-enylamino)-phenylamino]-5-trifluoromethyl-pyrimidin-4-ylamino}-thiophene-3-carboxylic acid methylamide] | > 20 µM | > 20 µM | 15.3 ± 0.48% | > 20 µM | > 250 °C | > 40 µM | – | –
10 | CNC(=O)c1ccsc1Nc1nc(Nc2ccc(Nc3c(NCCO)c(=O)c3=O)cc2)ncc1C(F)(F)F [6c, 2–(2-{4-[2-(2-Hydroxy-ethylamino)-3,4-dioxo-cyclobut-1-enylamino]-phenylamino}-5-trifluoromethyl-pyrimidin-4-ylamino)-thiophene-3-carboxylic acid methylamide] | > 20 µM | > 20 µM | 16.6 ± 0.21% | > 20 µM | > 250 °C | > 40 µM | – | –
11 | CNC(=O)c1ccsc1Nc1nc(Nc2ccc(Nc3c(NC4CCN(C)CC4)c(=O)c3=O)cc2)ncc1C(F)(F)F [6h, 2-(2-{4-[2-(1-Methyl-piperidin-4-ylamino)-3,4-dioxo-cyclobut-1-enylamino]-phenylamino}-5-trifluoromethyl-pyrimidin-4-ylamino)-thiophene-3-carboxylic acid methylamide] | > 20 µM | > 20 µM | 10.6 ± 0.93% | > 20 µM | > 250 °C | > 40 µM | – | –
12 | CNC(=O)c1ccsc1Nc1nc(Nc2ccc(Nc3c(NCCNC(=O)C=Cc4ccccc4)c(=O)c3=O)cc2)ncc1C(F)(F)F [8e, 2-[2-(4-{3,4-Dioxo-2-[2-(3-phenyl-acryloylamino)-ethylamino]-cyclobut-1-enylamino}-phenylamino)-5-trifluoromethyl-pyrimidin-4-ylamino]-thiophene-3-carboxylic acid methylamide] | 4.31 ± 0.39 µM | 3.15 ± 0.44 µM | 53.1 ± 1.75% | 4.12 ± 0.65 µM | > 250 °C | > 40 µM | 0.64 ± 0.1 µM | –
13 | CNC(=O)c1ccsc1Nc1nc(Nc2ccc(NC(=O)c3cccc(C(F)(F)F)c3)cc2)ncc1C(F)(F)F [4f, 2-{5-Trifluoromethyl-2-[4-(3-trifluoromethyl-benzoylamino)-phenylamino]-pyrimidin-4-ylamino}-thiophene-3-carboxylic acid methylamide] | 8.36 ± 0.49 µM | 6.14 ± 0.78 µM | 30.8 ± 1.09% | 8.51 ± 0.64 µM | > 250 °C | > 40 µM | – | –
14 | CCC(=O)NCCNc1c(Nc2ccc(Nc3ncc(C(F)(F)F)c(Nc4sccc4C(=O)NC)n3)cc2)c(=O)c1=O [8a, 2-(2-{4-[3,4-Dioxo-2-(2-propionylamino-ethylamino)-cyclobut-1-enylamino]-phenylamino}-5-trifluoromethyl-pyrimidin-4-ylamino)-thiophene-3-carboxylic acid methylamide] | > 20 µM | > 20 µM | 6.86 ± 0.11% | > 20 µM | > 250 °C | > 40 µM | – | –
15 | CNC(=O)c1ccsc1Nc1nc(Nc2ccc(Nc3c(NC4CCC(O)CC4)c(=O)c3=O)cc2)ncc1C(F)(F)F (stereo not drawn) [6g, 2-(2-{4-[2–(4-Hydroxy-cyclohexylamino)-3,4-dioxo-cyclobut-1-enylamino]-phenylamino}-5-trifluoromethyl-pyrimidin-4-ylamino)-thiophene-3-carboxylic acid methylamide] | > 20 µM | > 20 µM | 9.27 ± 0.25% | > 20 µM | > 250 °C | > 40 µM | – | –
16 | CNC(=O)c1ccsc1Nc1nc(Nc2ccc(Nc3c(NC(C)C)c(=O)c3=O)cc2)ncc1C(F)(F)F [6d, 2-{2-[4-(2-Isopropylamino-3,4-dioxo-cyclobut-1-enylamino)-phenylamino]-5-trifluoromethyl-pyrimidin-4-ylamino}-thiophene-3-carboxylic acid methylamide] | 14.1 ± 1.28 µM | 10.1 ± 1.96 µM | 29.1 ± 1.03% | > 20 µM | > 250 °C | > 40 µM | – | –
17 | CNC(=O)c1ccsc1Nc1nc(Nc2ccc(Nc3c(NC4CCCC4)c(=O)c3=O)cc2)ncc1C(F)(F)F [6e, 2-{2-[4-(2-Cyclopentylamino-3,4-dioxo-cyclobut-1-enylamino)-phenylamino]-5-trifluoromethyl-pyrimidin-4-ylamino}-thiophene-3-carboxylic acid methylamide] | 9 ± 0.78 µM | 7.14 ± 0.92 µM | > 50% | 9.24 ± 0.86 µM | > 250 °C | > 40 µM | 0.74 ± 0.1 µM | 53.17 ± 3.05%
18 | CNC(=O)c1ccsc1Nc1nc(Nc2ccc(Nc3c(NCCNC(=O)C=Cc4cccc(F)c4)c(=O)c3=O)cc2)ncc1C(F)(F)F [8f, 2-{2-[4–(2-{2-[3-(3-Fluoro-phenyl)-acryloylamino]-ethylamino}-3,4-dioxo-cyclobut-1-enylamino)-phenylamino]-5-trifluoromethyl-pyrimidin-4-ylamino}-thiophene-3-carboxylic acid methylamide] | 3.09 ± 0.66 µM | 2.17 ± 0.54 µM | 58.9 ± 1.92% | 3.48 ± 0.22 µM | > 250 °C | > 40 µM | 0.57 ± 0.29 µM | –
